One compound from patent US8999938B2, “Ophthalmic lipophilic drug delivery vehicle formulations” (GNT, LLC, priority 2013, dated 2015) can be followed below.

The text on data set [1]: Oily vehicles such as castor oil solubilize, but these have poor compliance.
For data set [2] the following is noted: for max soluble concentration: in water. The source says: The solubility of α-2 agonists, in particular, decreases exponentially at an increased pH.

Where two headings read alike, the source gives them in different places.

Turning to `Cc1cccc([C@H](C)c2cnc[nH]2)c1C` [dexmedetomidine], the “concentration solubilized in the provided compositions” value in data set [1] is listed as not below 0.15%. In addition, the max soluble concentration in data set [2] (pH solution 6.0) is on record as 0.195%; in data set [2] (pH solution 6.4) it was 0.060%; in data set [2] (pH solution 7.0), 0.023%; in data set [2] (pH solution 7.4), 0.015%; in data set [2] (pH solution 8.0), 0.013%. Further, in data set [2] (pH of 4.0 to 6.0), the degree of solubility result is “very high degree of solubility”.
